Assay results from patent US10544120B2, “Biaryl kinase inhibitors” (BRISTOL-MYERS SQUIBB COMPANY, priority 2015, dated 2020).

Biological target: GST-Xa-hAAK1 (Homo sapiens (Human), UniProt Q2M2I8)
Experiment: AAK1 Kinase Assay
Type: biochemical
Details: bacterially expressed GST-Xa-hAAK1 3.5 nM; ATP 22 μM; fluoresceinated peptide 1.5 μM; 3 hours at room temperature; Caliper LabChip 3000
In short: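 Bacterially expressed GST-Xa-hAAK1 was combined with substrates and compounds (eleven concentrations) and incubated 3 h at room temperature, then stopped with EDTA. Fluorescent substrate and phosphorylated product were separated electrophoretically (Caliper LabChip), and IC50 values came from non-linear regression.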

Sequence of GST-Xa-hAAK1 (Q2M2I8 whole entry): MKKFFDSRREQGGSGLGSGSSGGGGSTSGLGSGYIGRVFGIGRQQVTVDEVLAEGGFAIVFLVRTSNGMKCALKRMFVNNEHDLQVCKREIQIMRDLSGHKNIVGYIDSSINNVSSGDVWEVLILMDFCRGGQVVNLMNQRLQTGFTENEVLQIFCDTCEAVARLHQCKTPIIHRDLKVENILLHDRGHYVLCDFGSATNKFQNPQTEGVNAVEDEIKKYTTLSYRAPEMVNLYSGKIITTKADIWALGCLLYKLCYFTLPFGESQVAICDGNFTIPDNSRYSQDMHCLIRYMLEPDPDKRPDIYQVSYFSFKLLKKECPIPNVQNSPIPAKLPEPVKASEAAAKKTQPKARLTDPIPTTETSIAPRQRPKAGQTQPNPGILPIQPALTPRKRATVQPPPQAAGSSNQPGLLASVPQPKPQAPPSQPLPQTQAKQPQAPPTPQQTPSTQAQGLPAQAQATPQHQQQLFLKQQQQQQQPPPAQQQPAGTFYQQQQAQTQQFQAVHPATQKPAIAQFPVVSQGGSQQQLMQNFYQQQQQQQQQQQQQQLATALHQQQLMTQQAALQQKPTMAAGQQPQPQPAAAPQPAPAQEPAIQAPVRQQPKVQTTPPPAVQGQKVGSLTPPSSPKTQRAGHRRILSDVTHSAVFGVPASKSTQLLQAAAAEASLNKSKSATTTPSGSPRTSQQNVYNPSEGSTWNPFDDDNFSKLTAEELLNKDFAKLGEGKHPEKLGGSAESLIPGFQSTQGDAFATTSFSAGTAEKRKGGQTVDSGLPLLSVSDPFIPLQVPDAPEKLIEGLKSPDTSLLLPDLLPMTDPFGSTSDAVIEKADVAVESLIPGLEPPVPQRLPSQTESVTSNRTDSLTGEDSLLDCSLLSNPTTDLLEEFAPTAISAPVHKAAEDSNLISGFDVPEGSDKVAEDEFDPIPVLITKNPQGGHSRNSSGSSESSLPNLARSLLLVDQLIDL

Structure (SMILES): COc1cc(-c2ccc(OC[C@@](C)(N)CC(C)C)c(C#N)c2)ncn1 [Example 439, (S)-2-((2-amino-2,4-dimethylpentyl)oxy)-5-(6-methoxypyrimidin-4-yl)benzonitrile]
- IC50: 128 nM
